Inconclusive results are not listed. Calls of active or inactive are those of the source.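 How the source made its calls: active means valid dose-response fit whose half-maximal growth-inhibiting concentration is at or below a set limit above the top tested dose; inconclusive means flat fit with effect between 30 and 70%, or poor fit; inactive means half-maximal concentration above a set limit.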

55 molecules from PubChem BioAssay AID1259246 (Broad Institute, 2017) can be followed below.

The nature of one assay: antibacterial activity against Clostridioides difficile – 10-point retest, dose response (AID 1259246). The conditions noted are these: Clostridioides difficile clinical isolate growth, OD600, 24 h; at 60 µM (top of the series).
`CN(C)CC(=O)N1[C@@H](C#N)[C@H](c2ccc(C#CC3CCCCC3)cc2)[C@@H]1CO`: the activity change, negative = inhibition was 0.345% (inactive).
For `N#C[C@@H]1[C@@H](c2ccc(C#Cc3cccnc3)cc2)[C@@H](CO)N1C(=O)C1CCCCC1`, the activity change, negative = inhibition was 1.92% (inactive).
`COC(=O)[C@@H]1[C@@H](CO)[C@@H]2Cn3c(ccc(-c4cccc(F)c4)c3=O)[C@@H]2N1C(C)=O`: the activity change, negative = inhibition was 9.82% (inactive).
`C[C@@H]1CN([C@@H](C)CO)S(=O)(=O)c2ccc(C#Cc3ccccc3F)cc2O[C@@H]1CN(C)CC1CCOCC1`: the activity change, negative = inhibition was 3.46% (inactive).
Still for that read-out and setting: the value for `O=C(C[C@@H]1C[C@H]2c3cc(NC(=O)C4CCC4)ccc3O[C@H]2[C@H](CO)O1)NCc1ccc(Cl)cc1` was -4.77% (inactive).
The same measure, in the same setting: the same measure for `C[C@@H]1CN([C@H](C)CO)S(=O)(=O)c2ccc(/C=C/c3ccccc3)cc2O[C@H]1CN(C)Cc1ccccc1`: 2.59% (inactive); for `COc1ccccc1C#Cc1ccc([C@H]2[C@@H](CO)N(C(=O)C3CCCCC3)[C@H]2C#N)cc1`: 2.35% (inactive).
The same measure, in the same setting: the value for `O=C(C[C@H]1C[C@@H]2c3cc(NC(=O)C4CCC4)ccc3O[C@@H]2[C@@H](CO)O1)NCc1ccncc1` was -0.413% (inactive); that for `C[C@@H]1CN([C@@H](C)CO)S(=O)(=O)c2ccc(/C=C/c3ccccc3)cc2O[C@H]1CN(C)Cc1ccccc1` was 2.6% (inactive).

Staying with this assay, now noted: Clostridioides difficile clinical isolate growth, OD600, 24 h; at 110 µM (top of the series).
Consider `O=C(C[C@@H]1CC[C@H]2[C@@H](COC[C@H](O)CN2S(=O)(=O)c2ccc(Cl)cc2)O1)NCc1ccc(Cl)c(Cl)c1`, for which the activity change, negative = inhibition was 55.9% (inactive).

Staying with this assay, now noted: Clostridioides difficile clinical isolate growth, OD600, 24 h; at 120 µM (top of the series).
`C[C@H](CO)N1C[C@H](C)[C@H](CN(C)Cc2ccc(C(=O)O)cc2)Oc2cc(/C=C/c3ccccc3)ccc2S1(=O)=O`: the activity change, negative = inhibition is -7.29% (inactive).
As for `COc1ccc(C(=O)Nc2ccc3c(c2)C(=O)N(C)C[C@H](OC)[C@H](C)CN[C@@H](C)CO3)cc1`, the activity change, negative = inhibition is 8.1% (inactive).
Still for that read-out and setting: the value for `CCCC#Cc1ccc2c(c1)O[C@H](CN(C)Cc1ccc3c(c1)OCO3)[C@H](C)CN([C@H](C)CO)S2(=O)=O` was 33% (inactive); that for `C[C@H]1CN([C@@H](C)CO)S(=O)(=O)c2ccc(C#Cc3ccccc3F)cc2O[C@@H]1CN(C)C` was 10.1% (inactive); that for `C[C@@H]1CN([C@H](C)CO)C(=O)Cc2cc(NC(=O)CCCN(C)C)ccc2O[C@H]1CN(C)C` was 0.476% (inactive).
Consider `CC(C)C#Cc1ccc2c(c1)O[C@@H](CN(C)Cc1cccnc1)[C@H](C)CN([C@H](C)CO)S2(=O)=O`, for which the activity change, negative = inhibition was 27.7% (inactive).
As for `CNC[C@@H]1Oc2cc(C#CCC(C)C)ccc2S(=O)(=O)N([C@@H](C)CO)C[C@H]1C`, the activity change, negative = inhibition was 21.5% (inactive).
On the same count and under the same terms, the same measure for `C[C@H](CO)N1C[C@H](C)[C@@H](CN(C)Cc2ccc(-c3ccccc3)cc2)Oc2ccc(NC(=O)C3CC3)cc2CC1=O`: 25.6% (inactive); for `C[C@@H]1CCCCO[C@H](CN(C)C(=O)CCC(F)(F)F)[C@H](C)CN([C@@H](C)CO)C(=O)c2cc(NC(=O)c3ccncc3)ccc2O1`: 14.3% (inactive).
Same read-out and setting: the same measure for `CNC[C@@H]1Oc2cc(-c3ccc(C)cc3)ccc2S(=O)(=O)N([C@@H](C)CO)C[C@H]1C`: 10.7% (inactive).
As to `C[C@@H]1CN([C@@H](C)CO)C(=O)Cc2cc(NC(=O)CCCN(C)C)ccc2O[C@H]1CN(C)Cc1ccncc1`, the activity change, negative = inhibition was -4.05% (inactive).
Same read-out and setting: the same measure for `C[C@H](CO)N1C[C@H](C)[C@@H](CN(C)Cc2cccnc2)Oc2cc(C#CC3CCCCC3)ccc2S1(=O)=O`: 27.1% (inactive); for `C[C@@H]1CN([C@@H](C)CO)S(=O)(=O)c2ccc(Br)cc2O[C@H]1CN(C)Cc1cccnc1`: 2.31% (inactive); for `C[C@@H]1CN([C@H](C)CO)S(=O)(=O)c2ccc(C#CC3CCCCC3)cc2O[C@H]1CN(C)Cc1cccnc1`: 18.8% (inactive).
The same measure, in the same setting: the value for `C[C@@H]1CN([C@H](C)CO)C(=O)c2cccc(NC(=O)Nc3ccccc3)c2O[C@H]1CN(C)Cc1ccc(Oc2ccccc2)cc1` was 17.8% (inactive).
In the case of `CC1=CC2(CO)C(=O)[C@]3(CO3)[C@H]1[C@H]1[C@]2(C)C=C(CO)C(=O)[C@]12CO2`, the activity change, negative = inhibition is 10.8% (inactive).
The same measure, in the same setting: the same measure for `C[C@H](CO)N1C[C@H](C)[C@@H](CN(C)C(=O)Nc2ccc(F)cc2)OCCCC[C@H](C)Oc2ccc(NC(=O)Nc3cccc4ccccc34)cc2C1=O`: 40.4% (inactive).
Still for that read-out and setting: the same measure for `C[C@@H]1CN([C@@H](C)CO)C(=O)Cc2cc(NC(=O)CCCN(C)C)ccc2O[C@H]1CN(C)Cc1ccc(C(F)(F)F)cc1`: 23.8% (inactive); for `CO[C@H]1CN(C)C(=O)c2cc(NC(=O)Nc3ccc4c(c3)OCO4)ccc2OC[C@H](C)NC[C@H]1C`: -6.51% (inactive).
On the same count and under the same terms, the same measure for `O=C(C[C@@H]1C[C@@H]2c3cc(NC(=O)Nc4ccccc4)ccc3O[C@@H]2[C@@H](CO)O1)NC1CCCC1`: 2.79% (inactive); for `CO[C@H]1CN(C)C(=O)c2ccc(NC(=O)c3nc4ccccc4s3)cc2OC[C@@H](C)N(Cc2ccncc2)C[C@H]1C`: 20.7% (inactive); for `COc1ccc(-c2ccc([C@H]3[C@H](C#N)N(C(=O)C4CCCC4)[C@H]3CO)cc2)cc1`: 5.91% (inactive).
As to `C[C@H](CO)N1C[C@H](C)[C@@H](CN(C)C(=O)Nc2ccccc2)OCCCC[C@H](C)Oc2ccc(NC(=O)Nc3cccc4ccccc34)cc2C1=O`, the activity change, negative = inhibition is 20.2% (inactive).
Same read-out and setting: the same measure for `O=C(C[C@@H]1C[C@@H]2c3cc(NC(=O)Nc4ccc(F)cc4)ccc3O[C@@H]2[C@H](CO)O1)NC1CCCCC1`: -4.54% (inactive); for `CC(C)CC#Cc1ccc2c(c1)O[C@@H](CN(C)Cc1ccc3c(c1)OCO3)[C@@H](C)CN([C@H](C)CO)S2(=O)=O`: 23.6% (inactive); for `C[C@H]1CN([C@@H](C)CO)C(=O)c2cccc(NC(=O)Nc3ccc4c(c3)OCO4)c2O[C@@H]1CN(C)Cc1ccc(-c2ccccc2)cc1`: 2.11% (inactive).
Same read-out and setting: the value for `CC(C)CC#Cc1ccc2c(c1)O[C@@H](CN(C)Cc1cccnc1)[C@H](C)CN([C@@H](C)CO)S2(=O)=O` was 29.9% (inactive); that for `C[C@@H]1CCCCO[C@H](CN(C)S(=O)(=O)c2ccc(F)cc2)[C@@H](C)CN([C@H](C)CO)C(=O)c2cc(NC(=O)Nc3cccc4ccccc34)ccc2O1` was 7.93% (inactive); that for `COc1ccc(NC(=O)Nc2cccc3c2O[C@@H](CN(C)C(=O)NC2CCCCC2)[C@H](C)CN([C@H](C)CO)C3=O)cc1` was 1.64% (inactive).
On the same count and under the same terms, the value for `O=S(=O)(Cc1ccccc1)NCC[C@H]1CC[C@H](NS(=O)(=O)c2ccccc2)[C@H](CO)O1` was -7.57% (inactive); that for `COc1ccc(CN(C)C[C@@H]2OCCCC[C@@H](C)Oc3ccc(NC(=O)Nc4cccc5ccccc45)cc3C(=O)N([C@H](C)CO)C[C@H]2C)cc1` was 44.3% (inactive).
Turning to `CC(C)C#Cc1ccc2c(c1)O[C@H](CN(C)CC1CCOCC1)[C@H](C)CN([C@H](C)CO)S2(=O)=O`, the activity change, negative = inhibition was 10.2% (inactive).
For `CO[C@H]1CN(C)C(=O)c2ccc(NC(=O)c3nc4ccccc4s3)cc2OC[C@H](C)N(Cc2ccncc2)C[C@H]1C`, the activity change, negative = inhibition was 18.4% (inactive).
Turning to `C[C@@H]1CN([C@H](C)CO)C(=O)Cc2cc(NC(=O)C3CC3)ccc2O[C@@H]1CN(C)Cc1ccccc1`, the activity change, negative = inhibition was -3.71% (inactive).
With `CO[C@@H]1CN(C)C(=O)c2ccc(NC(=O)c3nc4ccccc4s3)cc2OC[C@@H](C)N(Cc2cccnc2)C[C@H]1C`, the activity change, negative = inhibition was 14.9% (inactive).
For `CNC[C@@H]1Oc2ccc(NC(=O)CCCN(C)C)cc2CC(=O)N([C@H](C)CO)C[C@H]1C`, the activity change, negative = inhibition was 2.33% (inactive).
`C[C@@H]1CN([C@H](C)CO)C(=O)Cc2cc(N(C)C)ccc2O[C@@H]1CN(C)Cc1ccc(-c2ccccc2)cc1`: the activity change, negative = inhibition is 22.5% (inactive).
On to `COc1ccc(S(=O)(=O)Nc2cccc3c2O[C@@H](CN(C)S(=O)(=O)c2c(C)noc2C)[C@H](C)CN([C@H](C)CO)C3=O)cc1`, for which the activity change, negative = inhibition was -3.81% (inactive).
Same read-out and setting: the same measure for `COc1ccccc1CNC(=O)C[C@@H]1C[C@@H]2c3cc(NC(=O)NC4CCCC4)ccc3O[C@@H]2[C@@H](CO)O1`: 2.23% (inactive).

Still in this assay, the particulars now being: Clostridioides difficile clinical isolate growth, OD600, 24 h; at 135 µM (top of the series).
For the molecule `C[C@@H]1CN([C@H](C)CO)C(=O)c2cc(NC(=O)Nc3cccc4ccccc34)ccc2O[C@@H](C)CCCCO[C@H]1CN(C)C(=O)c1ccccc1`, the activity change, negative = inhibition was 14.9% (inactive).
The same measure, in the same setting: the value for `C[C@@H]1CCCCO[C@@H](CN(C)S(=O)(=O)c2ccc(F)cc2)[C@@H](C)CN([C@H](C)CO)C(=O)c2cc(NC(=O)Nc3cccc4ccccc34)ccc2O1` was 14.6% (inactive); that for `O=C(N[C@H]1CC[C@H](CCNS(=O)(=O)Cc2ccccc2)O[C@H]1CO)c1ccccc1F` was -3.44% (inactive); that for `C[C@@H]1CN([C@H](C)CO)C(=O)Cc2cc(NC(=O)CCC(F)(F)F)ccc2O[C@H]1CN(C)Cc1ccc(-c2ccccc2)cc1` was 15.9% (inactive).
Take `Cc1ccc(S(=O)(=O)N(C)C[C@H]2Oc3ccc(NS(C)(=O)=O)cc3C(=O)N([C@@H](C)CO)C[C@H]2C)cc1`: the activity change, negative = inhibition is 9.46% (inactive).
On the same count and under the same terms, the same measure for `C[C@H](CO)N1C[C@H](C)[C@H](CN(C)Cc2ccc(Oc3ccccc3)cc2)Oc2ccc(NC(=O)CCCN(C)C)cc2CC1=O`: 34.3% (inactive).
